How the values were obtained:
[1] = tested on: senescent foreskin fibroblasts (Sen(IR)HCA2); assay: Cell count survival assay, irradiation-induced senescent HCA2; assay type: cell-based; settings: 0, 2.5, 10 μM for 9 days
Experimental: (§1) Foreskin fibroblast cell lines HCA2 and BJ, lung fibroblast cell line IMR90, and mouse embryonic fibroblasts were seeded in six-well plates and induced to senesce with 10 Gy of ionizing radiation (IR) or a 24 hr treatment with doxorubicin (Doxo). Senescent phenotype was allowed to develop for at least 7 days, at which point a cell count was made to determine the baseline number of cells. Nutlin-3a treatment was then initiated for a period of at least 9 days. Media alone or media with drug as appropriate was refreshed at least every three days. At the end of the assay time period, cells are counted. Each condition was seeded in three plate wells and counted independently. Initial cell count serves as a control to determine the induction of senescence, as compared to the last day count without nutlin treatment. Initial non-senescent cell count serves as a proxy to determine Nutlin-3a toxicity.
(§2) Foreskin fibroblast cell lines HCA2 and BJ, lung fibroblast cell line IMR90, and mouse embryonic fibroblasts were exposed to 10 Gy of ionizing radiation (IR) to induce senescence. […] Percent survival was calculated as [cell count on day 9 of Nutlin-3a treatment/initial cell count on first day of Nutlin-3a treatment].

[2] = tested on: senescent foreskin fibroblasts (Sen(IR)BJ); assay: Cell count survival assay, irradiation-induced senescent BJ; assay type: cell-based; settings: 0, 2.5, 10 μM for 9 days
Experimental: as §1, §2

[3] = tested on: doxorubicin-treated (Doxo) senescent aortic endothelial cells (Endo Aort); assay: Cell count survival assay, doxorubicin-induced senescent aortic endothelial cells; assay type: cell-based; settings: Sen(Doxo) aortic endothelial cells; 11 days
Experimental: as §1
Foreskin fibroblasts (HCA2) and aortic endothelial cells (Endo Aort) were treated with doxorubicin (250 nM) for one day (24 hours) to induce senescence (see FIG. 1). Eight days following doxorubicin treatment, Nutlin-3a treatment was initiated. HCA2 cells were exposed to Nutlin-3a for 9 days, and aortic endothelial cells were exposed to Nutlin-3a for 11 days. […] Percent survival was calculated as [cell count on the last day of Nutlin-3a treatment/initial cell count on first day of Nutlin-3a treatment].

[4] = tested on: non-senescent aortic endothelial (Non Sen Endo Aort) cells; assay: Cell count toxicity assay, non-senescent aortic endothelial cells; assay type: cell-based; settings: 0, 2.5, 10 μM, 11 days
Experimental: Non-senescent aortic endothelial (Endo Aort) cells and pre-adipocytes (Pread) were also treated with varying concentrations (0, 2.5 μM, and 10 μM) of Nutlin-3a for a period of 11 days to assess Nutlin-3a toxicity, as described above. Cell counts were taken at the start at Day 0 (NS start) and at the end of Nutlin-3a treatment (NS 0). The difference between counts of cells not treated with Nutlin-3a on day 11 (NS 0) and cell counts from NS start reflects the cell growth over the indicated time period. […] Decrease in apparent survival between NS 0 and NS 2.5 and between NS 0 and NS 10 reflects a decrease in cell growth.

[5] = tested on: DNA damage response proteins in senescent IMR90 cells; assay: Immunoblot of DNA damage response proteins in irradiated senescent IMR90 cells; assay type: cell-based, human
Experimental: Primary human fibroblast (IMR90) cells were induced to senesce by applying 10 Gy of irradiation. Seven days after irradiation (Day 0), cells were treated with 10 μM Nutlin-3a or vehicle (DMSO) for nine days (Day 9). The drug or vehicle was refreshed every three days. Drug/vehicle was removed at Day 9 and the cells were cultured for an additional six days in media without drug or DMSO, changing media every three days. Cells were collected at Day 0 (non-senescent cells), Day 9, Day 12, and Day 15, and protein extracted and processed for immunoblotting (Western blotting). Two samples were processed at each time point; the results are provided for one sample in FIG. 14.

LDLR-/- mice fed a HFD = assay: Atherosclerosis model, LDLR-/- mice fed a high fat diet; assay type: in vivo, mouse
Excerpt: Schematics of two atherosclerosis mouse models are presented in FIGS. 43A-B. The study illustrated in FIG. 43A assessed the extent to which clearance of senescent cells from plaques in LDLR^−/− mice with Nutlin-3A reduces plaque load. Two groups of LDLR^−/− mice (10 weeks) are fed a high fat diet (HFD) (Harlan Teklad TD.88137) having 42% calories from fat, beginning at Week 0 and throughout the study. Two groups of LDLR^−/− mice (10 weeks) are fed normal chow (−HFD). From weeks 0-2, one group of HFD mice and −HFD mice are treated with Nutlin-3A (25 mg/kg, intraperitoneally). One treatment cycle is 14 days treatment, 14 days off. Vehicle is administered to one group of HFD mice and one group of −HFD mice. At week 4 (timepoint 1), one group of mice are sacrificed and to assess presence of senescent cells in the plaques. For the some of the remaining mice, Nutlin-3A and vehicle administration is repeated from weeks 4-6. At week 8 (timepoint 2), the mice are sacrificed and to assess presence of senescent cells in the plaques. The remaining mice are treated with Nutlin-3A or vehicle from weeks 8-10. At week 12 (timepoint 3), the mice are sacrificed and to assess the level of plaque and the number of senescent cells in the plaques.
Plasma lipid levels were measured in LDLR^−/− mice fed a HFD and treated with Nutlin-3A or vehicle at timepoint 1 as compared with mice fed a −HFD (n=3 per group). Plasma was collected mid-afternoon and analyzed for circulating lipids and lipoproteins.
At the end of timepoint 1, LDLR^−/− mice fed a HFD and treated with Nutlin-3A or vehicle were sacrificed (n=3, all groups), and the aortic arches were dissected for RT-PCR analysis of SASP factors and senescent cell markers. Values were normalized to GAPDH and expressed as fold-change versus age-matched, vehicle-treated LDLR^−/− mice on a normal diet.
At the end of timepoint 2, LDLR^−/− mice fed a HFD and treated with Nutlin-3A or vehicle (n=3 for all groups) were sacrificed, and aortic arches were dissected for RT-PCR analysis of SASP factors and senescent cell markers. Values were normalized to GAPDH and expressed as fold-change versus age-matched, vehicle-treated LDLR^−/− mice on a normal diet.
At the end of timepoint 3, LDLR^−/− mice fed a HFD and treated with Nutlin-3A or vehicle (n=3 for all groups) were sacrificed, and aortas were dissected and stained with Sudan IV to detect the presence of lipid. Body composition of the mice was analyzed by MRI, and circulating blood cells were counted by Hemavet. […] As shown in FIGS. 48A-B, the platelet and lymphocyte counts were equivalent between the Nutlin-3A and vehicle treated mice.

[6] = 10 μM, decreased when the drug was removed

With `COc1ccc(C2=N[C@@H](c3ccc(Cl)cc3)[C@@H](c3ccc(Cl)cc3)N2C(=O)N2CCNC(=O)C2)c(OC(C)C)c1` [Nutlin-3a] the Percent survival [1] was “reduced cell survival”, the Percent survival [2] was “reduced cell survival” and the Percent survival [3] was “sensitive”. The “Proliferation (percent growth)” value [4] was “reduces proliferation”, the “Toxicity (cell number vs starting level)” value [4] was “non-toxic” and the “Phosphorylation of H2AX (γH2AX)” value ([5]; 10 μM, after treatment and after drug removal) was “declining levels of phosphorylation”. The “Phosphorylation of the kinase ATM (pATM S1981)” value ([5]; 10 μM, also after drug removal) was “lower”, the “Level of MDM2” value [5, 6] was “elevated” and the “Level of p21” value [5, 6] was “elevated”. For the same compound, the “Level of p53” value [5, 6] was “elevated”, the “Level of IkBa” value ([5]; after drug is removed) was “approaches the level of IkBa in non-senescent cells” and the “Expression of SASP factors and senescent cell markers in aortic arch (RT-PCR)” value (LDLR-/- mice fed a HFD; 25 mg/kg i.p., after 1 treatment cycle, MMP3, MMP13, PAI1, p21, IGFBP2, IL-1A, IL-1B) was “reduced expression of several SASP factors and senescent cell markers”. For the same compound, the “Expression of SASP factors and senescent cell markers in aortic arch (RT-PCR)” value (LDLR-/- mice fed a HFD; 25 mg/kg i.p., multiple (two) treatment cycles) was “reduced expression of most markers”, the “Reduction of plaques in the descending aorta (Sudan IV)” value (LDLR-/- mice fed a HFD; 25 mg/kg i.p., three treatment cycles, week 12) was about 45% and the “Lymphocyte count vs vehicle” value (LDLR-/- mice fed a HFD; three treatment cycles) was “equivalent”. The “Platelet count vs vehicle” value (LDLR-/- mice fed a HFD; three treatment cycles) was “equivalent”.

Source: US11980616B2, “Treating liver disease by selectively eliminating senescent cells” (Buck Institute for Research on Aging, priority 2014, dated 2024)
